Assay: QUV accelerated weathering exposure test of painted aluminum panels (colour fading, CIE La*b*)
Format: physicochemical
Details: Study I, 48 weeks; 6 hr UV/6 hr condensation cycles; mildewcide level 2.0 (% as is); phthalocyanine blue acrylic paint
Experimental: An exposure test was conducted in two studies to determine the effect of weathering (UV exposure and/or condensation) on samples of panels with paints containing chlorothalonil, tetraconazole, and chlorothalonil/tetraconazole blend additives, respectively. The panels were aluminum having a 3003 alloy mill finish. One coating (6 mils thick when wet) of the selected paint was applied to each panel and allowed to air dry for 7 days at ambient temperature. Simulated weathering was performed by exposure of the panels to a QUV accelerated weathering tester providing UVA radiation at a power consumption of 1200 Watts (110 volts, 60 Hz). The exposure was conducted in alternating and repeating 6-hour cycles, one 6-hour cycle being an ultraviolet radiation exposure cycle (conducted at 80° C.), and the other cycle being a condensation cycle wherein the panels are exposed to moisture (conducted at 60°). The results are set forth below in Table I. CIE La*b* System describes a color space wherein ‘a’ is the green(−)/[…] axis. ‘L’ is lightness; ‘C’ is chroma or saturation.

For `FC(F)C(F)(F)OCC(Cn1cncn1)c1ccc(Cl)cc1Cl` (centres unmarked) [TCZ, Tetraconazole], the “DC vs. Blank” value was 1.02 and the “DL vs. Blank” value was −2.20.

Reference: patent publication US6409809B1 (priority 1999, dated 2002)
